Laboratory results from patent US9684238B2, “Fluorene-type compound, photopolymerization initiator comprising said fluorene-type compound, and photosensitive composition containing said photopolymerization initiator” (TOKYO OHKA KOGYO CO., LTD., priority 2012, dated 2017).

How the values were obtained:
[1] = Transmittance of transparent cured film; type: physicochemical; settings: cured at exposure energy quantity 80 mJ/cm^2
Method: Transparent cured films were formed by using the photosensitive compositions obtained in Examples 1 to 9, Examples 2-1 to 2-10, and Comparative Examples 1 and 2 in the same manner as in the evaluation 1 except that the exposure energy quantity was set to 80 mJ/cm^2. The transmittance (%) of each of the resultant transparent cured films at 400 nm and the average transmittance (%) thereof in the range of from 400 to 700 nm were measured with a spectrophotometer (manufactured by Hitachi High-Technologies Corporation, trade name: “U-3900H”, quartz cell, optical path length; 1 cm). A higher transmittance at 400 nm means less coloring with a yellow color. In addition, a higher transmittance of a coating film means a higher transmitting property of a pattern to be formed.

[2] = Evaluation 1: 20-μm pattern line width of transparent photosensitive composition; settings: for 20-μm pattern line width: transparent composition, initiator 0.4 mmol; for sensitivity to the active energy ray (in words): photopolymerization initiator containing the compound
Method: After that, the mixture was filtered with a membrane filter having an aperture of 5 μm to provide a photosensitive composition.
It should be noted that the fluorene-based compound as a photopolymerization initiator was used in such an amount that its molar quantity was kept constant in the respective examples and comparative examples.
The glass substrate after the application was dried with a fan dryer at 90° C. for 10 minutes. Thus, a coating film (photosensitive layer) was formed. Next, the film was exposed to light having an exposure energy quantity of 5 mJ/cm^2, 10 mJ/cm^2, 20 mJ/cm^2, 40 mJ/cm^2, 60 mJ/cm^2, or 80 mJ/cm^2 by using a high-pressure mercury lamp (manufactured by Karl Suss, trade name: “MASK ALIGNER”) through a negative mask (mask width: 20 μm). Next, the resultant was immersed in a 0.1 wt % aqueous solution of tetramethylammonium hydroxide (TMAH) and then rinsed with pure water. The remaining cured film was subjected to the following evaluation.
(§1) A larger value for the line width means higher sensitivity.

[3] = Absorption coefficient (absorbance of 0.001% solution in tetrahydrofuran); type: physicochemical; settings: for Λ max (absorption maximum wavelength): 0.001% (wt/vol) in tetrahydrofuran, from 280 nm to 400 nm; for Absorption coefficient at 365 nm / Absorption coefficient at Λ max: 0.001% (wt/vol) solution in tetrahydrofuran
Method: A 0.001% (wt/vol) solution of each of the compounds 1, 2, 4, 6, 8, 9, 11, 12, 13, 15, 16, D-1, D-3, D-4, D-7, D-8, D-9, D-12, D-14, D-15, D-20, C-1, and C-2 in tetrahydrofuran was prepared, and its absorbance was measured with a spectrophotometer (manufactured by Hitachi High-Technologies Corporation, trade name: “U-3900H”). An absorption maximum wavelength (Amax) at a wavelength of from 280 nm to 400 nm was read from an absorption spectrum obtained with the spectrophotometer.

[4] = Average transmittance of composition; type: physicochemical; settings: photosensitive composition, quartz cell, optical path length 1 cm
Method: The average transmittance (%) of each of the photosensitive resin compositions obtained in Examples 1 to 9, Examples 2-1 to 2-10, and Comparative Examples 1 and 2 in the range of from 400 nm to 700 nm was measured with a spectrophotometer (manufactured by Hitachi High-Technologies Corporation, trade name: “U-3900H”, quartz cell, optical path length; 1 cm).

[5] = Decomposition point by thermal analysis (TG-DTA); type: physicochemical; settings: 5.0 mg
Method: The compounds 1, 2, 4, 6, 8, 9, 11, 12, 13, 15, 16, D-1, D-3, D-4, D-7, D-8, D-9, D-12, D-14, D-15, D-20, C-1, and C-2 were each subjected to measurement with a thermal analysis apparatus (TG-DTA) (manufactured by Rigaku Corporation, trade name: “Thermo Plus EVO TG 8120”) by using 5.0 mg thereof.

[6] = Evaluation 3: 20-μm pattern line width of black photosensitive composition; settings: black composition (carbon black, cardo resin), initiator 0.4 mmol
Description: The mixture was filtered with a membrane filter having an aperture of 5 μm to provide a photosensitive composition.
Photosensitive compositions were each obtained in the same manner as in Example 10 except that the used fluorene-based compound and its usage were changed as shown in Table 5.
Each of the photosensitive compositions obtained in Examples 10 to 15, Examples 2-11 to 2-20, and Comparative Example 3 was applied onto a glass substrate with a spin coater (manufactured by Kyowariken Co., Ltd., trade name: “K-359SD1”) so that its thickness after drying became 1.0 μm. The glass substrate after the application was dried with a fan dryer at 90° C. for 10 minutes. Thus, a coating film (photosensitive layer) was formed. Next, the film was exposed to light having an exposure energy quantity of 10 mJ/cm^2, 20 mJ/cm^2, 40 mJ/cm^2, 60 mJ/cm^2, or 80 mJ/cm^2 by using a high-pressure mercury lamp (manufactured by Karl Suss, trade name: “MASK ALIGNER”) through a negative mask (mask width: 20 μm). Next, the resultant was immersed in a 0.1 wt % aqueous solution of tetra methyl ammonium hydroxide (TMAH) and then rinsed with pure water. The remaining cured film was subjected to the following evaluation. In addition, FIGS. 2, 3, and 6 show microscope photographs of black cured films obtained by using the photosensitive compositions of Examples 10 and 11, and Comparative Example 3, and FIGS. 7 to 11 show microscope photographs of black cured films obtained by using the photosensitive compositions of Examples 2-11, 2-13, 2-14, 2-17, and 2-18.
as §1

[7] = Solubility in PGME, PGMEA and ethyl lactate; type: physicochemical; settings: room temperature; for Solubility Ethyl lactate: in 100 parts by weight of ethyl lactate; for Solubility PGMEA: in 100 parts by weight of propylene glycol monomethyl ether acetate; for Solubility PGME: in 100 parts by weight of propylene glycol monomethyl ether
Method: An evaluation for solubility was performed in accordance with the following evaluation criteria based on the dissolution amount.
A: 10 Parts by weight or more of the photopolymerization initiator is dissolved.
B: An amount in the range of from 5 parts by weight or more to less than 10 parts by weight of the photopolymerization initiator is dissolved.
C: An amount in the range of from 2 parts by weight or more to less than 5 parts by weight of the photopolymerization initiator is dissolved.
D: Less than 2 parts by weight of the photopolymerization initiator is dissolved.

[8] = exposure energy quantity 20 mJ/cm^2
[9] = exposure energy quantity 40 mJ/cm^2
[10] = exposure energy quantity 60 mJ/cm^2
[11] = exposure energy quantity 80 mJ/cm^2
[12] = exposure energy quantity 10 mJ/cm^2
[13] = exposure energy quantity 5 mJ/cm^2

Average transmittance (700 nm to 400 nm) Transparent cured film [1] [%]	Transmittance (400 nm) Transparent cured film [1] [%]	Λ max (absorption maximum wavelength) [3] [nm]	Absorption coefficient at 365 nm [3] [mL/mg/cm]	Absorption coefficient at Λ max [3] [mL/mg/cm]	Average transmittance (700 nm to 400 nm) Solution [4] [%]	Decomposition point [5] [°C]	Structure (SMILES)	20-μm pattern line width [2, 8]	20-μm pattern line width [2, 9]	20-μm pattern line width [2, 10]	20-μm pattern line width [2, 11]	20-μm pattern line width ([6]; 10 mJ/cm^2)	20-μm pattern line width ([6]; 20 mJ/cm^2)	20-μm pattern line width ([6]; 40 mJ/cm^2)	20-μm pattern line width ([6]; 60 mJ/cm^2)	20-μm pattern line width ([6]; 80 mJ/cm^2)	Solubility Ethyl lactate [7]	Solubility PGMEA [7]	Solubility PGME [7]	20-μm pattern line width [2, 12]	also measured
99.8	98.9	298.5	4.4	94.4	94.2	216.4	CCn1c2ccc(C(=O)c3ccccc3C)cc2c2cc(/C(C)=N/OC(C)=O)ccc21 [Compound C-1, reference compound]	20.4	22.1	22.3	22.4	18.5	19.0	20.0	20.9	21.2	C (An amount in the range of from 2 parts by weight or more to less than 5 parts by weight of the photopolymerization initiator is dissolved.)	B (An amount in the range of from 5 parts by weight or more to less than 10 parts by weight of the photopolymerization initiator is dissolved.)	B (An amount in the range of from 5 parts by weight or more to less than 10 parts by weight of the photopolymerization initiator is dissolved.)		
99.2	91.7	343.5	33.2	54.1	57.5	273.4	CCCC1(CCC)c2cc(C(=NOC(C)=O)c3ccccc3)ccc2-c2ccc([N+](=O)[O-])cc21 [Compound D-1]	20.9	22.4	22.8	23.1	19.4	20.4	21.9	22.3	23.1	D (Less than 2 parts by weight of the photopolymerization initiator is dissolved.)	C (An amount in the range of from 2 parts by weight or more to less than 5 parts by weight of the photopolymerization initiator is dissolved.)	D (Less than 2 parts by weight of the photopolymerization initiator is dissolved.)	20.2	sensitivity to the active energy ray (in words) [2]: additionally high sensitivity to the active energy ray
99.8	95.2	345.5	46.3	67.8	88.9	272.2	CCCC1(CCC)c2cc(C(C)=NOC(C)=O)ccc2-c2ccc([N+](=O)[O-])cc21 [Compound D-3]	21.4	22.5		23.8	19.6	20.6	21.6	22.1	22.6	D (Less than 2 parts by weight of the photopolymerization initiator is dissolved.)	C (An amount in the range of from 2 parts by weight or more to less than 5 parts by weight of the photopolymerization initiator is dissolved.)	D (Less than 2 parts by weight of the photopolymerization initiator is dissolved.)	20.9	sensitivity to the active energy ray (in words) [2]: additionally high sensitivity to the active energy ray; 20-μm pattern line width [2, 13]: 19.6
99.8	96.4	343.0	29.1	63.7	70.9	228.9	CCCC1(CCC)c2cc(C(=O)/C(C)=N/OC(C)=O)ccc2-c2ccc(C(=O)c3ccc([N+](=O)[O-])cc3)cc21 [Compound D-9]	20.0	20.7		21.7	18.8	19.1	20.1	20.9	21.2	C (An amount in the range of from 2 parts by weight or more to less than 5 parts by weight of the photopolymerization initiator is dissolved.)	C (An amount in the range of from 2 parts by weight or more to less than 5 parts by weight of the photopolymerization initiator is dissolved.)	D (Less than 2 parts by weight of the photopolymerization initiator is dissolved.)	19.5	20-μm pattern line width [2, 13]: 19.3
